Data reported in the NIST ThermoML archive (doi:10.1016/j.jct.2012.12.001).
Numbers after ± are expanded uncertainties.

Experiment: heat capacity at constant pressure per volume; xn = mol fraction of the nth substance listed
Details: 101 kPa, Liquid, DSC, x2 = 0.695

CCCCCCCCCCCCCCCCC [heptadecane] + N#Cc1ccccc1
Details | heat capacity [J/K/m3]
308.55 K | 1753500 ± 20000
308.65 K | 1748300 ± 20000
308.75 K | 1746500 ± 20000
308.85 K | 1745200 ± 20000
308.95 K | 1748100 ± 20000
309.05 K | 1747000 ± 20000
309.14 K | 1747900 ± 20000
309.25 K | 1743700 ± 20000
309.35 K | 1742200 ± 20000
309.45 K | 1738100 ± 20000
309.55 K | 1735200 ± 20000
309.65 K | 1738100 ± 20000
309.75 K | 1736500 ± 20000
309.85 K | 1737600 ± 20000
309.95 K | 1740400 ± 20000
310.05 K | 1736900 ± 20000
310.15 K | 1731900 ± 20000
310.25 K | 1735000 ± 20000
310.35 K | 1732200 ± 20000
310.45 K | 1727800 ± 20000
310.55 K | 1733700 ± 20000
310.65 K | 1733500 ± 20000
310.75 K | 1728600 ± 20000
310.85 K | 1733600 ± 20000
310.95 K | 1730900 ± 20000
311 K | 1732600 ± 20000
311.1 K | 1732200 ± 20000
311.2 K | 1728000 ± 20000
311.3 K | 1725400 ± 20000
311.4 K | 1724600 ± 20000
311.5 K | 1725800 ± 20000
311.6 K | 1729500 ± 20000
311.7 K | 1732300 ± 20000
311.8 K | 1728700 ± 20000
311.9 K | 1728100 ± 20000
312 K | 1725500 ± 20000
312.1 K | 1723400 ± 20000
312.2 K | 1722200 ± 20000
312.3 K | 1721300 ± 20000
312.4 K | 1724000 ± 20000
312.5 K | 1727600 ± 20000
312.6 K | 1725700 ± 20000
312.7 K | 1727300 ± 20000
312.8 K | 1722600 ± 20000
312.9 K | 1722100 ± 20000
313 K | 1720300 ± 20000
313.1 K | 1719600 ± 20000
313.2 K | 1723400 ± 20000
313.3 K | 1724400 ± 20000
313.4 K | 1725500 ± 20000
313.5 K | 1720500 ± 20000
313.6 K | 1717000 ± 20000
313.7 K | 1718300 ± 20000
313.8 K | 1719300 ± 20000
313.9 K | 1720600 ± 20000
314 K | 1725600 ± 20000
314.1 K | 1722200 ± 20000
314.2 K | 1723200 ± 20000
314.3 K | 1718000 ± 20000
314.4 K | 1717600 ± 20000
314.5 K | 1721100 ± 20000
314.6 K | 1727600 ± 20000
314.7 K | 1722500 ± 20000
314.8 K | 1716700 ± 20000
314.9 K | 1717900 ± 20000
315 K | 1715800 ± 20000
315.1 K | 1719700 ± 20000
315.2 K | 1722400 ± 20000
315.3 K | 1721800 ± 20000
315.4 K | 1717200 ± 20000
315.5 K | 1714900 ± 20000
315.6 K | 1718500 ± 20000
315.7 K | 1724700 ± 20000
315.8 K | 1719600 ± 20000
315.9 K | 1715500 ± 20000
316 K | 1715800 ± 20000
316.1 K | 1715600 ± 20000
316.2 K | 1721400 ± 20000
316.3 K | 1718600 ± 20000
316.4 K | 1718400 ± 20000
316.5 K | 1717700 ± 20000
316.6 K | 1724000 ± 20000
316.7 K | 1724400 ± 20000
316.8 K | 1719200 ± 20000
317.16 K | 1722200 ± 20000
317.2 K | 1722100 ± 20000
317.31 K | 1721500 ± 20000
317.4 K | 1721700 ± 20000
317.5 K | 1722100 ± 20000
317.6 K | 1721900 ± 20000
317.7 K | 1721900 ± 20000
317.8 K | 1721800 ± 20000
317.9 K | 1721500 ± 20000
318 K | 1721300 ± 20000
318.1 K | 1721300 ± 20000
318.2 K | 1721200 ± 20000
318.3 K | 1721100 ± 20000
318.41 K | 1721000 ± 20000
318.5 K | 1721100 ± 20000
318.6 K | 1721300 ± 20000
318.7 K | 1721400 ± 20000
318.8 K | 1721400 ± 20000
318.9 K | 1721100 ± 20000
